The source of these data is US10342786B2, “P38 kinase inhibitors reduce DUX4 and downstream gene expression for the treatment of FSHD” (Fulcrum Therapeutics, Inc., priority 2017, dated 2019).

Holding throughout (assay type): cell-based, human
The test system of one data set is DUX4-fl mRNA. The data set can be described thus: DUX4 / DUX4-fl mRNA expression by qPCR in FSHD myotubes. The procedure: In a 6 well plate, 450 μL Buffer RLT Plus was added. Lysate was homogenized by transfer the lysate to a gDNA Eliminator spin column placed in a 2 mL collection tube (supplied), centrifuged for 30 s at ≥8000×g (≥10,000 rpm) and discarded column while saving the flow-through. Then 250 μL of Ethanol (35% final) was added to the flow-through, and mixed well by pipetting, not centrifuged. Then samples were transferred, including any precipitate that may have formed, to an RNeasy MinElute spin column placed in a 2 mL collection tube (supplied). Then centrifuged for 15 s at ≥8000×g. Flow-through was discarded or collected for Protein precipitation. 700 μL Buffer RW1 to the RNeasy MinElute spin column was added then centrifuge for 15 s at ≥8000×g. and discard the flow-through. DNAse treatment was performed by gently mixing 10 μL DNAseI with 70 μL of Buffer RDD and added directly to the column, incubated at room temperature for 20 min. Then, 700 μL Buffer RW1 (per manufactures specification) to the RNeasy MinElute spin column, centrifuged for 15 s at >8000×g. and the flow-through discarded. 500 μL Buffer RPE was added to the RNeasy MinElute spin column centrifuged for 15 s at ≥8000×g and discarded the flow-through. 500 μL of 80% ethanol was added to the RNeasy MinElute spin column, centrifuged for 2 min at ≥8000×g to wash the spin column membrane and the collection tube was discarded with the flow-through. The RNeasy MinElute spin column was placed in a new 2 mL collection tube (supplied) centrifuged at full speed for 5 min to dry the membrane and the collection tube was discarded with the flow through. RNeasy MinElute spin column was placed in a new 1.5 mL collection tube (supplied). 14 μL RNase-free water was added directly to the center of the spin column membrane, and centrifuged for 1 min at full speed to elute the RNA. You should end up with about 12 μL of eluted RNA.
cDNA preparation. […] 10 seconds then read plate on QuantStudio7 as per manufactures instruction (Thermo). […]
A general note: In qPCR the cycle at which signal appears reflects the starting amount.

Another data set relates to FSHD myotubes. The data set can be described thus: Myotube formation / fusion (MHC and DAPI staining). The settings on record: 10, 100, and 1000 nM; FSHD myotubes. As for the experimental part:
On day 0, change to differentiation media. Remove plates from the incubator and aspirate the growth medium, Wash once with PBS, 100 μL for 96-wells and 1 mL for a 6-well plate, Add 100 μL or 2 mL of differentiation medium per well, 96- or 6-well respectively. Add antisense oligonucleotides or drug at the desire concentration and put back in the incubator. Fusion should start within day 1-2. Incubate for 3-4 days.
Briefly, cells were fixed in 4% paraformaldehyde and […] for 10 min at room temperature. Cells were permeabilized with PBST (1×PBS solution with 0.1% Triton X-100) before blocking with 10% Normal Donkey Serum or 3% BSA (NDS) in PBST. […] DUX4 was detected by immunocytochemistry using the E5-5 antibody in differentiated FSHD myotubes. Activated Caspase-3 was detected cell signaling antibody that we're using for ICC, Asp175 (https://www.cellsignal.com/products/primary-antibodies/cleaved-caspase-3-asp175-antibody/9661).
Immortalized FHSD myotubes were differentiated and treated with DMSO vehicle control or FTX-1821 at concentrations of 1 μM, 0.33 μM, 0.11 μM or 0.037 μM. […] The nuclei in myotubes were quantified according to […] staining (FIG. 8B).

In data set [1] the test system is active Caspase-3 in FSHD myotubes. The experiment in a line: Apoptosis by active Caspase-3 in FSHD myotubes. The settings on record: FSHD1 and FSHD2 lines; vs healthy control line CTRL-FTCE-014. As for the experimental part:
Briefly, cells were fixed in 4% paraformaldehyde and […] for 10 min at room temperature. Cells were permeabilized with PBST (1×PBS solution with 0.1% Triton X-100) before blocking with 10% Normal Donkey Serum or 3% BSA (NDS) in PBST. Cells were then incubated with appropriately diluted primary antibodies in PBST with 5% NDS for 1 hours at room temperature or 12 hours at 4° C., washed with PB ST for 3 times at room temperature and then incubated with desired secondary antibodies in TBST with 5% NDS and DAPI to counter stain the nuclei. DUX4 was detected by immunocytochemistry using the E5-5 antibody in differentiated FSHD myotubes. Activated Caspase-3 was detected cell signaling antibody that we're using for ICC, Asp175 (https://www.cellsignal.com/products/primary-antibodies/cleaved-caspase-3-asp175-antibody/9661).
Apoptosis was measured by active Caspase-3 levels in FSHD myotubes in vitro as described in Materials and Methods. Apoptosis was detected in a sporadic manner in a subset of myotubes in culture as shown by the white circles and magnified region in FIG. 9A. Active Caspase-3 signal was quantified in FSHD myotubes that had been treated with FTX-1821 at different concentrations (FIG. 9B). […] No change in active Caspase-3 signal was observed following DMSO treatment.

Turning to “FTX-2: DUX4 sequence-directed antisense oligonucleotide purchased from Exiqon, CAGCGTCGGAAGGTGG (SEQ ID NO: 1) (listed as DNA, chemistry not given here)”, the DUX4 expression result in the data set with DUX4-fl mRNA (1 μM ASO, FSHD myotubes vs DMSO) is given as “reduced amounts”; in the data set on DUX4-fl mRNA (different dilutions of the ASO, FSHD myotubes) it was “dose dependent reduction”.
On to `Cn1c(=O)c(Oc2ccc(F)cc2F)cc2cnc(NC(CCO)CCO)nc21` [Pamapimod, 6-(2,4-difluorophenoxy)-2-((1,5-dihydroxypentan-3-yl)amino)-8-methylpyrido[2,3-d]pyrimidin-7(8H)-one], for which the “DUX4-fl mRNA levels normalized to POLR2A mRNA” value in the data set with DUX4-fl mRNA (10, 100, and 1000 nM, FSHD myotubes, compared to DMSO) is “dose-dependently reduced”. The differentiation into myotubes result in the data set on FSHD myotubes is reported as “without impacting”. Also, in data set [1], the “apoptosis (active caspase-3)” value is listed as “reduction”.
